Source: US20080009025A1, “PROTEIN KINASE REGULATION” (priority 1999, published 2008)
Where a SMILES comes first, the peptide text is derived from it.

What was measured:
Assay in all cases: Surface plasmon resonance binding of PDK1 to PIF / immobilised PIFtide
PDK1 [1] = target: T1, PDK1 (Homo sapiens, UniProt O15530, K115A); conditions: immobilised biotinylated peptide; PDK1 K115A
T1 construct: Full length PDK1 (residues 1-556); made in house; host or cells: 293 cells
T1 sequence (O15530 1-556 K115A): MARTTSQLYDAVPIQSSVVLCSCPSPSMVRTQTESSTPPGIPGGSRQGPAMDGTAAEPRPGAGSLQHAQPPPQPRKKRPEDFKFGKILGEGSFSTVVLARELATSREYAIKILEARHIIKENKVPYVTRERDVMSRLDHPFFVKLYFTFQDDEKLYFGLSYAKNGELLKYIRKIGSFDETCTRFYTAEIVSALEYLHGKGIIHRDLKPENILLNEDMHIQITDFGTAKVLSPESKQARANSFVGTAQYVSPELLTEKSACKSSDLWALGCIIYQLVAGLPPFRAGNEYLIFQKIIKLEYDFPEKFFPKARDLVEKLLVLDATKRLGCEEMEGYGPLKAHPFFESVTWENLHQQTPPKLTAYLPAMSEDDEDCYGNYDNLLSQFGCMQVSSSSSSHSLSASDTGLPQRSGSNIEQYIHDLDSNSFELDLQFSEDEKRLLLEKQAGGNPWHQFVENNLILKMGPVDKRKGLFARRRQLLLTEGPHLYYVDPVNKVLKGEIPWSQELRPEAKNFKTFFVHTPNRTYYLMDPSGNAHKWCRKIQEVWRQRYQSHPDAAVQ
Source text: (§1) It is preferred that the interaction can be detected using a surface plasmon resonance method, as described in Example 1 or 2 and in Balendran et al (1999), supra and GB9906245.7, supra. The interacting polypeptide may be immobilised on the test surface, for example it can be coupled through amino groups to a SensorChip CM5™, according to the manufacturer's instructions, or a biotinylated polypeptide can be bound to an avidin coated SensorChip SA. The protein kinase (at concentrations between, for example 0 and […], for example 2 μM) is then injected over the surface and steady state binding determined in each case. From these measurements a Kd can be determined. […] Alternatively, a Kd can be determined for a polypeptide in competition with the immobilised polypeptide. The protein kinase (for example at a concentration of 0.5 μM) is mixed with free polypeptide (for example, at concentrations between 0 and 3 μM) and the mixture injected over the immobilised polypeptides. The steady state binding is determined in each case, from which the Kd of the interaction can be determined using the […] relationship. Alternatively, the interaction may be expressed in terms of an observed response or relative observed responses, measured in terms of mass of protein bound to the surface, as described in Example 2. For example, the polypeptide may be immobilised by amino coupling to a SensorChip CM5 and each protein kinase (for example different mutated protein kinases, as discussed below) for example at a concentration of 1.0 μM, injected over the immobilised polypeptide. Alternatively, the polypeptide may be immobilised on a SA SensorChip and each protein kinase, for example at a concentration of 40 nM injected over the immobilised polypeptide. The steady state response for each protein kinase is determined, for example expressed in Response Units (RU). 1000 RU corresponds to 1 ng/mm^2 of protein bound to the surface. A response of less than 10 RU may indicate that no interaction has taken place. A response of at least 10 RU may indicate that the immobilised and injected molecules interact with each other.
(§2) FIG. 9. Effect of mutation of conserved residues in the PIF-binding pocket of PDK1 on the ability to interact with PIF. 293 cells were transiently transfected with DNA constructs expressing GST-PIF and either wild type Myc-PDK1 or the indicated mutants of PDK1. 36 h post transfection the cells were lysed and GST-PIF purified by affinity chromatography on glutathione-Sepharose beads. 2 μg of each protein was electrophoresed on a 10% SDS/polyacrylamide gel and either stained with Coomassie blue (A and E) or immunoblotted using an anti Myc antibody to detect Myc-PDK1 (B and F). To establish that the wild type PDK1 and mutant proteins were expressed at a similar level, 10 μg of total cell lysate was electrophoresed on a 10% SDS/polyacrylamide gel and immunoblotted using anti-Myc antibodies (C and G). Duplicates of each condition are shown. Similar results were obtained in 3 to 5 separate experiments. (D) Surface Plasmon Resonance measurements were carried out in a BiaCore instrument as described in the Methods to measure the interaction of wild type and mutant GST-PDK1 preparations with the 24 residue synthetic peptide whose sequence encompasses the PDK1 binding site on PIF termed PIFtide [24: Example 2]. […]
(§3) Binding was analysed directly by surface plasmon resonance in an upgraded Bia-Lite™ system. […]

PDK1 [2] = tested on: PDK1; set-up: species or system human
Source text: as §1, §2, §3

PDK1 [3] = target: T2, PDK1 (Homo sapiens, UniProt O15530); conditions: His-tagged PDK1
T2 construct: Full length PDK1 (residues 1-556); made in house; host or cells: 293 cells
T2 sequence (O15530 52-556): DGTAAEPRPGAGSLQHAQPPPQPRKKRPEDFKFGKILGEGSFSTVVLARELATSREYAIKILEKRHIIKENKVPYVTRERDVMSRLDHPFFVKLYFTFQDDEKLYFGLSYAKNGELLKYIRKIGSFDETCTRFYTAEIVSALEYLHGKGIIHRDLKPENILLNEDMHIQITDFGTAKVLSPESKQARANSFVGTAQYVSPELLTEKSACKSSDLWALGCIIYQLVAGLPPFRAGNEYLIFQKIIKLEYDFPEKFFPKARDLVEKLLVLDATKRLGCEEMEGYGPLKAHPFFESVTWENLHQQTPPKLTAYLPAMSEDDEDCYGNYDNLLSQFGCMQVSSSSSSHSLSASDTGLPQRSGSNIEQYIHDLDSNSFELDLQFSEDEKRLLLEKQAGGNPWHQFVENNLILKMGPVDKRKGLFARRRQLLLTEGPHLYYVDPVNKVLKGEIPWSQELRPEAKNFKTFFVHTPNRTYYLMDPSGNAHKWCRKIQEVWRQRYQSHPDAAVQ
Source text: as §1, §2, §3

Row | estimated equilibrium dissociation constant of the association between GST-PIF and His-tagged PDK1 (PDK1 [3]) | Molecule | interaction with K115A mutant of PDK1 (PDK1 [1]) | decreased affinity of PDK1[K115A], PDK1[I119A], PDK1[Q150A] and PDK1[L155A] for PIFtide (PDK1 [2]; PDK1 PIF pocket mutants vs wild type, unpublished data) | interaction with L155S, L155D and L155E mutants of PDK1 (PDK1 [2]; immobilised biotinylated peptide, PDK1 mutants L155S, L155D, L155E) | interaction with wild type GST-PDK1 (PDK1 [2]; immobilised biotinylated peptide, wild type GST-PDK1)
1 |  | CC[C@H](C)[C@H](NC(=O)[C@H](Cc1ccc(O)cc1)NC(=O)[C@H](CC(=O)O)NC(=O)[C@H](Cc1ccccc1)NC(=O)[C@H](CC(=O)O)NC(=O)[C@H](CCCNC(=N)N)NC(=O)[C@H](Cc1ccccc1)NC(=O)[C@H](CCSC)NC(=O)[C@H](CCC(=O)O)NC(=O)[C@H](CCC(N)=O)NC(=O)[C@H](CCC(=O)O)NC(=O)[C@H](CCC(=O)O)NC(=O)[C@H](CCC(=O)O)NC(=O)[C@H](CO)NC(=O)[C@H](CC(C)C)NC(=O)[C@@H](NC(=O)[C@H](CCCNC(=N)N)NC(=O)[C@@H]1CCCN1C(=O)[C@H](CCC(=O)O)NC(=O)[C@@H](N)CCCNC(=N)N)[C@@H](C)CC)C(=O)N[C@@H](C)C(=O)N[C@@H](CC(=O)O)C(=O)N[C@@H](Cc1c[nH]c2ccccc12)C(=O)N[C@@H](CS)C(=O)O [PIFtide] (H-REPRILSEEEQEMFRDFDYIADWC-OH; N-terminus and C-terminus assumed) | interacted weakly | ~10 fold | no detectable affinity | high affinity interaction
2 | 600 nM | GST-PIF: glutathione S-transferase fused to the last 77 residues of PRK2 (PIF) |  |  |  | 
